Source: EP0781282B1, “[1,2,4]TRIAZOLO[4,3-a]QUINOXALINONE DERIVATIVES, THEIR PREPARATION AND USE” (NOVO NORDISK A/S, priority 1994, dated 1996)

Key:
AMPA receptors = test: 3H-AMPA binding (Test 1); details: displacement of 50% of specific 3H-AMPA binding (5 nM); rat cerebral cortical membrane homogenate, 0°C, 30 min
Protocol: The displacement activity of the compounds may be shown by determining the IC50 value which represents the concentration (µM) which causes a displacement of 50% of the specific binding of ^3H-AMPA.
^3H-AMPA binding (Test 1)
500 µl of thawed rat cerebral cortical membrane homogenate in Tris-HCI (30 mM), CaCl2 (2.5 mM) and KSCN (100 mM) pH 7.1 were incubated at 0°C for 30 min. with 25 µl ^3H-AMPA (5 nM final concentration) and the test compound and buffer. Nonspecific binding was determined by incubation with L-glutamic acid (600 µM final concentration). The binding reaction was terminated by adding 5 ml of ice-cold buffer followed by filtration through Whatman GF/C glass fibre filters and 2x5 ml wash with ice-cold buffer. Bound radioactivity was measured by scintillation counting. IC50 was determined by Hill analysis of at least four concentrations of test compound.

[1] = tested on: quisqualic acid stimulated spreading depression in chicken retina; test: Spreading depression in chicken retina (Test 2); details: 50% maximal inhibition of spreading depression; quisqualate 1 µg/ml, chick retina, 26°C
Protocol: The antagonism is measured by determining the IC50 value which represents the concentration which produces a 50% maximal inhibition of quisqualic acid stimulated spreading depression in chicken retina.
Spreading depression (Test 2)
Chicks (3-10 days old) were decapitated, the eyes enucleated and sectioned along the equatorial plane. After removal of the anterior chamber and the vitreous body, the posterior chamber of each eye was placed in a small petri dish containing a physiological saline solution (P.S.S.) of the following composition (mM) NaCI (100), KCI (6.0), CaCl2 (1.0), MgSO4 (1.0), NaHCO3 (30), NaH2PO4 (1.0), glucose (20).
The solution was saturated with 100% O2 and maintained at a temperature of 26°C.
The eyes were initially incubated in normal P.S.S. for 15-30 min. and then transferred to P.S.S. containing quisqualate (1 µg/ml). […] The time taken for an S.D. to start in each eye was measured.
After a further 15 min. of incubation in normal P.S.S. the eyes were transferred to normal P.S.S. containing the test compound and incubated for 15 min. […] The time taken for an S.D. to start in each eye was measured again. The eyes were then placed back in normal P.S.S. and after 15 min. the time taken for S.D. to start was measured again, in order to assess the degree of recovery from any drug effects. […]

CCOP(=O)(O)Cc1nnc2c(=O)[nH]c3cc(C(F)(F)F)c(-n4ccnc4)cc3n12 [Example 1, 1-(Ethoxy-hydroxy-phosphorylmethyl)-8-(1H-imidazol-1-yl)-7-trifluoromethyl[1,2,4]triazolo[4,3-a]quinoxalin-4(5H)-one]
IC50 (AMPA receptors): 240 nM
IC50 [1]: 1310 nM
